# From patent US9029386B2, “Pyridine derivatives useful as kinase inhibitors” (YM Biosciences Australia Pty Ltd, priority 2006, dated 2015)
# Biological target: T1, FLT-3 tyrosine kinase (Homo sapiens, UniProt P36888)
# T1 construct: purchased Upstate Cell Signalling Solutions, CA, USA 14-500
# T1 sequence (P36888 27-993): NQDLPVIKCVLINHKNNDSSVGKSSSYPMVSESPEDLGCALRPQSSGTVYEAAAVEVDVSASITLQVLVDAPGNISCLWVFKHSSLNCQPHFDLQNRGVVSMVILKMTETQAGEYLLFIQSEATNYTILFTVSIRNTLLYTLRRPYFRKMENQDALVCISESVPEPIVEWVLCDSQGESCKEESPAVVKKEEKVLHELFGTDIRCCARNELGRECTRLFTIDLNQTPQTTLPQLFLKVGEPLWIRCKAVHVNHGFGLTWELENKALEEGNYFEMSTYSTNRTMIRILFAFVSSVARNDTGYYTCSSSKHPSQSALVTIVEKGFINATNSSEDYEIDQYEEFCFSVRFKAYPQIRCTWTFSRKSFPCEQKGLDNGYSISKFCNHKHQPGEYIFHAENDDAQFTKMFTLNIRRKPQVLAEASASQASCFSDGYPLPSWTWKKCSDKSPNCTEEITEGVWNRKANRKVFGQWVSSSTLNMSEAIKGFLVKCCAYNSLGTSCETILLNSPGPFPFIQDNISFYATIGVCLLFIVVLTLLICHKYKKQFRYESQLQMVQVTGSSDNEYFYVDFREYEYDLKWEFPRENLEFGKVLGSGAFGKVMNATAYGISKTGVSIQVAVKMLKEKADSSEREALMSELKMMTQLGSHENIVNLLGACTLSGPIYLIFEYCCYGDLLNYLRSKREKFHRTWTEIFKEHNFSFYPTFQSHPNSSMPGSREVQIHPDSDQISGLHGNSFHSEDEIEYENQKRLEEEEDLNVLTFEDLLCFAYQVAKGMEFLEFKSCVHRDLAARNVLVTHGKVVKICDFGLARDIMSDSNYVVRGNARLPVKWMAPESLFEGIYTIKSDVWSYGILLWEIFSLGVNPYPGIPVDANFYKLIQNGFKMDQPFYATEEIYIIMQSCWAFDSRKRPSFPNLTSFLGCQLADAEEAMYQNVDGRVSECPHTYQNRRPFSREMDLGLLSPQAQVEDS
# Assay: Alphascreen protein tyrosine kinase assay, FLT-3
# Format: biochemical
# Conditions: read-out: Flt3
structure (smiles),measurement,value
Cc1cccc(C(=O)Nc2cccc([C@H](C)Nc3cncc(-c4ccc(S(N)(=O)=O)cc4)n3)c2)c1 [Compound 77],IC50,> 10 µM
